Results: ChEMBL document CHEMBL4725292 (J Med Chem, 2020)
Calls of active or inactive are those of the source. The rule behind the calls is not given here.

Columns and labels:
[1] = biological target: Bromodomain-containing protein 2 (Homo sapiens, UniProt P25440); assay: Binding affinity to full length BRD2 BD2 in human HuT78 cell lysates incubated for 45 mins by liquid chromatography-mass spectrometry based chemoproteomic binding assay; format: subcellular
[2] = biological target: T1, Transcription intermediary factor 1-alpha (Homo sapiens, UniProt O15164); assay: Binding affinity to human partial length TRIM24 (P790 to P977 residues) expressed in bacterial expression system by BROMOscan assay
T1 sequence (O15164 whole entry): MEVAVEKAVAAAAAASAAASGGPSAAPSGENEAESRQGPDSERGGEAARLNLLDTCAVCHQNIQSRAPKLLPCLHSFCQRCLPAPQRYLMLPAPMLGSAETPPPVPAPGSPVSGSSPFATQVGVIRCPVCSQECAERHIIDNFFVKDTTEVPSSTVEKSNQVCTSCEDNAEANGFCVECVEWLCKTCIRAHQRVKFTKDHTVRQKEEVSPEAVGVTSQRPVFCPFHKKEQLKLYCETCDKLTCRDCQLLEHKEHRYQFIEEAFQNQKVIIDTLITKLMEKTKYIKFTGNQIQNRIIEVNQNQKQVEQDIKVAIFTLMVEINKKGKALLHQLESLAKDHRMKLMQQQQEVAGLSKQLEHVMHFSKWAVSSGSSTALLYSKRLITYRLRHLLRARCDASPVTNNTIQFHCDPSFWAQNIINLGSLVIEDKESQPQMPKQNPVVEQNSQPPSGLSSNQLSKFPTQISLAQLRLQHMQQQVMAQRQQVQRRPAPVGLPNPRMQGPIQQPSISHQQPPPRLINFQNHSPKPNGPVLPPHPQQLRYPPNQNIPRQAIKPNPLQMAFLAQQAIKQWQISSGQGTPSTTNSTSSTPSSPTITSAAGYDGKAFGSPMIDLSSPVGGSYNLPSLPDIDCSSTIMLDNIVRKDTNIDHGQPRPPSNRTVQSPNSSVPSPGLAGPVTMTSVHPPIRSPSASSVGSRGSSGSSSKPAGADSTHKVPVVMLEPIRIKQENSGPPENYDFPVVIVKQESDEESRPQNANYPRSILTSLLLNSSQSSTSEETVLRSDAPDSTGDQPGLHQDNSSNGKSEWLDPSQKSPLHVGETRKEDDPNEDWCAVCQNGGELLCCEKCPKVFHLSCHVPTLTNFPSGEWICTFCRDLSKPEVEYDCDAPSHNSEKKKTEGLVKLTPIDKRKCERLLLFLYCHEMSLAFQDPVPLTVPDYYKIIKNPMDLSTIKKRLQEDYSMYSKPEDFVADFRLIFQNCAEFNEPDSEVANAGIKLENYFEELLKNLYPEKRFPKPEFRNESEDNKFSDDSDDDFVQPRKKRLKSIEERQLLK

[3] = biological target: Bromodomain adjacent to zinc finger domain protein 2A (Homo sapiens, UniProt Q9UIF9); assay: Binding affinity to human partial length BAZ2A (M1792 to L1905 residues) expressed in bacterial expression system by BROMOscan assay
Bromodomain adjacent to zinc finger domain protein 2A, sequence (Q9UIF9 whole entry, the tested form may be a part): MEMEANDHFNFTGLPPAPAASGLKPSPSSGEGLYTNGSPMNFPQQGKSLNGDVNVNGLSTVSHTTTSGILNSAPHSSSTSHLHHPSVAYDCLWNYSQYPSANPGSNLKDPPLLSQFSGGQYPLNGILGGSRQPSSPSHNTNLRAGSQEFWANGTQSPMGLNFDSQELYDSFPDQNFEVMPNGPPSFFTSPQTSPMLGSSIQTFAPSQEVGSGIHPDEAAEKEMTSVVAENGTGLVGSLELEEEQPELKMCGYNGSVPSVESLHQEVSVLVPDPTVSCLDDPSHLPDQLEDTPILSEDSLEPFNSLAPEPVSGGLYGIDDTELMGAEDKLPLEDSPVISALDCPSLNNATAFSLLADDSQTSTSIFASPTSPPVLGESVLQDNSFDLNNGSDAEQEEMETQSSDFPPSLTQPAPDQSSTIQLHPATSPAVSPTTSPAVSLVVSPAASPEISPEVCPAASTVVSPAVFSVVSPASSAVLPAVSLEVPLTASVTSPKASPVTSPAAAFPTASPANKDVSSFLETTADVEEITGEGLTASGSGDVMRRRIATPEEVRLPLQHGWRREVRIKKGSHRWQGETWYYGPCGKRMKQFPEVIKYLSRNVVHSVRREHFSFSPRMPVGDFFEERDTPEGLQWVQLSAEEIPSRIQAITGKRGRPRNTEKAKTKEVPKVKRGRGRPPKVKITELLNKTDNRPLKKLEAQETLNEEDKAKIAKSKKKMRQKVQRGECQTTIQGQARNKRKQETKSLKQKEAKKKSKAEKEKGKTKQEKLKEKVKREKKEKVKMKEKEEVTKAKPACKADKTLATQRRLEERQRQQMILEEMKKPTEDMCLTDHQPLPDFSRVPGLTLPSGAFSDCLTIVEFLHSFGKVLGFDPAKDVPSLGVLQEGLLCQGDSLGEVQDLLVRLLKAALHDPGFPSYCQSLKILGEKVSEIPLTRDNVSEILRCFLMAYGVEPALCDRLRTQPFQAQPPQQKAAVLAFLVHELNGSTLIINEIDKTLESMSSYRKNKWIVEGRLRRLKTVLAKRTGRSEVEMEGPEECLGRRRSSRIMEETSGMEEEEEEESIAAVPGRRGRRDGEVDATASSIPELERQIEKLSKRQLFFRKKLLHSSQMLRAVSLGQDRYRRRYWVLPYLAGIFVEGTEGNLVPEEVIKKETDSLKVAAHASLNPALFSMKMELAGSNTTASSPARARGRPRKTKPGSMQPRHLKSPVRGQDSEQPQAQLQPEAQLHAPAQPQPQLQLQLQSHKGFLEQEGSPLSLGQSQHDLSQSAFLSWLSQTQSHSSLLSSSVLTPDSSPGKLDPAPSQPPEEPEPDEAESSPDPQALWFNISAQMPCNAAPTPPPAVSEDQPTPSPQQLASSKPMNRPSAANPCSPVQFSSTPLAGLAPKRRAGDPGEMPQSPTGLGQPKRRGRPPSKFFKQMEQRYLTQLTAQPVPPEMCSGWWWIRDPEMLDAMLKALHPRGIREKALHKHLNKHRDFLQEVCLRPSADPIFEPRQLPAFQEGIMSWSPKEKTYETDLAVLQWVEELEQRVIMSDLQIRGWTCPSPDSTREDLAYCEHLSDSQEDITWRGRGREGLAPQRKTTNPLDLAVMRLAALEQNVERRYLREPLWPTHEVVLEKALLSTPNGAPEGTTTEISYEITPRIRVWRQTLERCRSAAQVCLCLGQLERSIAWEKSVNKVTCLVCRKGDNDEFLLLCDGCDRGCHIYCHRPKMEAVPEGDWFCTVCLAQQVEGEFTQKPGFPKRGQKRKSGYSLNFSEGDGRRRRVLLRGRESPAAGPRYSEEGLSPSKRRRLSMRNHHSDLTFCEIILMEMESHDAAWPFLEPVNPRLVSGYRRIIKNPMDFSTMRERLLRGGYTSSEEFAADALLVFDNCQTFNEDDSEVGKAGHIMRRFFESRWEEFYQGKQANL

Blood = assay: Inhibition of LPS-induced TNFalpha production in human whole blood preincubated for 30 mins followed by LPS addition and measured after overnight incubation by mesoscale assay; format: functional, tissue-based
[4] = Permeability of the compound in pH 7.4 phosphate buffer measured after 3 hrs by artificial membrane permeability assay based HPLC analysis; format: ADME; conditions: PAMPA, pH 7.4, read-out: permeability
[5] = biological target: Bromodomain-containing protein 3 (Homo sapiens, UniProt Q15059); assay: Binding affinity to human partial length BRD3 bromodomain 2 (G306 to P416 residues) expressed in bacterial expression system by BROMOscan assay
[6] = biological target: Transcription initiation factor TFIID subunit 1 (Homo sapiens, UniProt P21675); assay: Binding affinity to human partial length TAF1 bromodomain 2 (D1521 to D1656 residues) expressed in bacterial expression system by BROMOscan assay
Transcription initiation factor TFIID subunit 1, sequence (P21675 whole entry, the tested form may be a part): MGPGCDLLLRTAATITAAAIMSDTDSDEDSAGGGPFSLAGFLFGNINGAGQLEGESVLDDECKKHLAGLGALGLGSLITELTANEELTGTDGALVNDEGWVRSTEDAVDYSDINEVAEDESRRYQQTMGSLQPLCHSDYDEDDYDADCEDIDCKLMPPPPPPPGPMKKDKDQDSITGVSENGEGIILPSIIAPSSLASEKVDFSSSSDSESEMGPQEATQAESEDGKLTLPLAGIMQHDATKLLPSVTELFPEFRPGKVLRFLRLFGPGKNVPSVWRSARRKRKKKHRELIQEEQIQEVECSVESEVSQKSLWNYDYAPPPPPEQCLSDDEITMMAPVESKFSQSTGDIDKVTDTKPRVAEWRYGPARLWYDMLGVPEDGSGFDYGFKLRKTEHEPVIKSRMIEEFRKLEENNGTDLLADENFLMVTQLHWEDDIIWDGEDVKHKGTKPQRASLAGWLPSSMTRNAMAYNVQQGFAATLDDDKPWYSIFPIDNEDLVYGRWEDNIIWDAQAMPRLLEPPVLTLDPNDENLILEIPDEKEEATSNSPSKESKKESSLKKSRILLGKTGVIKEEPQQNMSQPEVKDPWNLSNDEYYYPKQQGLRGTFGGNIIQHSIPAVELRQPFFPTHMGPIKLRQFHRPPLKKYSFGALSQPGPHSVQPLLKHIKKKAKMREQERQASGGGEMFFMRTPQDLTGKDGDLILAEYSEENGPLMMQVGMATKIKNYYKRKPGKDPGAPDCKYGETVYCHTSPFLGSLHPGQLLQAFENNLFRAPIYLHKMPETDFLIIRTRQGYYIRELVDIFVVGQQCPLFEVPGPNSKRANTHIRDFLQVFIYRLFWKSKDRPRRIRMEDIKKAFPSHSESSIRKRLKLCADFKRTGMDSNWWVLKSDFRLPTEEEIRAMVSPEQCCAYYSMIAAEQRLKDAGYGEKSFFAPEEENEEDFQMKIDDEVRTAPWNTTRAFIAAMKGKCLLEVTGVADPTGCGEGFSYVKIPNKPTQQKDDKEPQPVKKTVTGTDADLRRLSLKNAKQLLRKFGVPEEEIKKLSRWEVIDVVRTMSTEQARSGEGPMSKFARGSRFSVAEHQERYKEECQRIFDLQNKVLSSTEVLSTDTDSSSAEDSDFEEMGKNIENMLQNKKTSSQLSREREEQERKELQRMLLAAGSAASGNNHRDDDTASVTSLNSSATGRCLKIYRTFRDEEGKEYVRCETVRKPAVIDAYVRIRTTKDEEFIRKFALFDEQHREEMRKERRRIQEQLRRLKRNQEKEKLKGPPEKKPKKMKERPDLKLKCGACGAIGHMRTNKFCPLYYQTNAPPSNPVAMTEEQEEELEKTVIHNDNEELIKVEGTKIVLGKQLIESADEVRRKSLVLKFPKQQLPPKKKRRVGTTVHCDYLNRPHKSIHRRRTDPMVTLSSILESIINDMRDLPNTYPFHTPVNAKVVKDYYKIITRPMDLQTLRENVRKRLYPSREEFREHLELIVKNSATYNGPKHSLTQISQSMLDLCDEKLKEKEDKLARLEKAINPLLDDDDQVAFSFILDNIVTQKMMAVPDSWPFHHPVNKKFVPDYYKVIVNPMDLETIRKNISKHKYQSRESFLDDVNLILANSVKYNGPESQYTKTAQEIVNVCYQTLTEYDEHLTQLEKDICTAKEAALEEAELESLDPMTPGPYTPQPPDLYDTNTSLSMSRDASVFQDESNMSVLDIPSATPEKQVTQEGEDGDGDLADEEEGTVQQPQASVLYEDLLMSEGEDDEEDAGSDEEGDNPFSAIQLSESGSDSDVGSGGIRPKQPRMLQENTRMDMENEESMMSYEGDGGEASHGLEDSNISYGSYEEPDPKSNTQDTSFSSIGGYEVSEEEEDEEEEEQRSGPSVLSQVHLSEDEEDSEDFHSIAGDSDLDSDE

B cell [7] = assay: Downregulation of IL-6 secretion in human B cells cocultured with human PBMC at 0.37 to 10 uM preincubated for 1 hr followed by anti-IgM and TCR stimulation and measured after 84 hrs by ELISA; format: functional, cell-based; conditions: dose microM 0.37-10, time 1.0 hrs
B cell [8] = assay: Downregulation of Ig-G secretion in human B cells cocultured with human PBMC at 0.37 to 10 uM preincubated for 1 hr followed by anti-IgM and TCR stimulation and measured after 84 hrs by ELISA; format: functional, cell-based; conditions: dose microM 0.37-10, time 1.0 hrs

Bromodomain-containing protein 2, sequence (P25440 whole entry, the tested form may be a part): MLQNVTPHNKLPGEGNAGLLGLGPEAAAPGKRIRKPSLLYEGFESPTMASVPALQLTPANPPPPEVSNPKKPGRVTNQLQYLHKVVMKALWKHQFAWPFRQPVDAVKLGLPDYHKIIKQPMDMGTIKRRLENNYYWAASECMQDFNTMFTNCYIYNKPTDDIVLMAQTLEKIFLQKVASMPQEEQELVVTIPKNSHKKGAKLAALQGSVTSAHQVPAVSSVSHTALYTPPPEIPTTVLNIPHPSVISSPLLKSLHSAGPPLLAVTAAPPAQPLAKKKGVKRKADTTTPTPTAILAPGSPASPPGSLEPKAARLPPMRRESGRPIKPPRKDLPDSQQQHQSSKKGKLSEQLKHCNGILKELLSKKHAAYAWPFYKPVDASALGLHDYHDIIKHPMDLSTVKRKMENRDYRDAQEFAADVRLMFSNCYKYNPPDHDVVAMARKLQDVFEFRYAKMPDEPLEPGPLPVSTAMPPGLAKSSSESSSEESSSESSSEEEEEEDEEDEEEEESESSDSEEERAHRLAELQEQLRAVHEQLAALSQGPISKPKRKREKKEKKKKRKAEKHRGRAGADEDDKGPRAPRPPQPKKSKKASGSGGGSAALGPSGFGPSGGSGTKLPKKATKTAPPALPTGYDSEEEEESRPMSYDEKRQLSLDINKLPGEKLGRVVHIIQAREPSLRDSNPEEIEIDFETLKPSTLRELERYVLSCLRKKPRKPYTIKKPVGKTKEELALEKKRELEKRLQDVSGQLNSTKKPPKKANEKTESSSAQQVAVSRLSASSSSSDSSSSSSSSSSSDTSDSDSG

Kd [1]: > 25.1 µM
Kd [2]: 20 µM
Kd [3]: 15.8 µM
IC50 (Blood): 0.87 µM
Papp at 3 h [4]: 19 ×10⁻⁶ cm/s
Kd [5]: 20 µM
Kd [6]: 0.0501 µM
SMILES: Cc1cc2c(-c3ccco3)cnc(N[C@@H]3CCN(C)C[C@H]3C(=O)NC3CCCCC3)c2[nH]c1=O [GSK789]
Activity (B cell [7]): Active
Activity (B cell [8]): Active
